Test results as given in patent US10604476B2, “Fluorinated amide derivatives and their uses as therapeutic agents” (Trillium Therapeutics Inc., priority 2015, dated 2020).

Assays:
[1] = system: LTG-resistant amygdala kindled seizures; assay: Lamotrigine (LTG) resistant amygdala kindled seizure rat model; assay type: in vivo; conditions: for Duration (sec) ± SD (afterdischarge) / N/F, number of animals active over the number tested / Seizure Score ± SEM: 0.25 hr
Text: The LTG-resistant amygdala kindled rat model is useful for not only identifying compounds effective against secondarily generalized partial seizures, but also allows for the differentiation of compounds that may be effective in therapy-resistant patients. […] Conversely, valproate can both prevent kindling development and block the expression of fully kindled seizures. The addition of the traditional ASDs, carbamazepine or lamotrigine, during the development of kindled seizures in this model will ultimately impair the effectiveness of lamotrigine against a fully expressed kindled seizure. […] This model may serve as a means to identify compounds which may be effective against therapy-resistant seizures. Anesthetized male Sprague-Dawley rats (250-300 g) are surgically implanted with an electrode into the left amygdala. Animals are then allowed to recover for one week before commencing kindling. The kindling procedure consists of delivering a 200 μAmp stimulus (suprathreshold) daily until all animals in both treatment groups display consistent Stage 4 or 5 seizures. One week after all animals are kindled, the animals receive a challenge dose of LTG (30 mg/kg, i.p.) before being stimulated to confirm the LTG sensitivity of the vehicle-treated control animals, as well as the LTG-resistance of the LTG-treated group. The animals are then allowed a washout of 3 days. On day 3 of the washout, the animals are pre-stimulated to ensure recovery of the fully kindled seizure. On day 4, kindled rats are challenged with a dose of an investigational agent (the dose that produced minimal motor impairment) and then challenged with the kindling stimulus at the predetermined TPE of the investigational drug. […] For this study, the ability of a candidate substance to reduce afterdischarge duration (ADD) and behavioral seizure scores (BSS) is quantitated by varying the dose between 0 and 100% effect. Unlike other acute seizure tests conducted by the ETSP, each kindled rat is allowed at least 3-4 days between tests to “washout” any investigational compound after testing. The average seizure scores±S.E.M. and afterdischarge duration (ADD) are noted, as are the number of animals protected from seizure (defined as a Racine score<3) over the number of animals tested.
The following procedure is used for surgical implantation of Electrodes. Male Spraque-Dawey rats are anesthetized using 1-3% isoflurane or a Ketamine/Xylazine cocktail. Ketamine is provided as 100 mg/ml solution, and dose 50 mg/kg given i.p. Xylazine is provided as 100 mg/ml solution, and dose 20 mg/kg given i.p. Mix the two solutions together in one syringe and administer i.p as one injection. Rat is monitored through surgery. If the rat is responsive to a tail pinch administer half the dose of Ketamine/xylazine or increase the isoflurane percentage. Administer buprenorphine at 0.02 mg/kg s.c. for pain management. An electric razor is used to shave the surface of the head. The rat is placed on an external heat source on the stereotaxic apparatus such that the height of the incisor bar and the positioning of the ear bars ensure consistency with the reference atlas. The entire scalp is scrubbed with betadine (3×) and wiped with alcohol. Ophthalmic ointment is applied to each eye. All instruments are sterilized via autoclave before beginning surgery. During surgery instruments are placed on a sterile drape. For subsequent surgeries on the same day, instruments can be placed into the hot bead sterilizer between surgeries. Stainless steel screws and electrodes are sterilized in 70% alcohol and place on a sterile drape. A sterile scalpel blade is used to make a midline scalp incision beginning from a point even with the eyes and extending back to and imaginary line connecting the ear. The fascia should be gently split and pulled away by from the scalp. The incision can be held open using retractors/forceps. […]

[2] = system: lithium pilocarpine-induced status epilepticus; assay: Pilocarpine-induced status epilepticus rat model; assay type: in vivo
Method: While most seizures are often short duration events that resolve spontaneously, status epilepticus (SE) events are characterized by continuous epileptic seizures or a series of seizures lasting longer than 30 minutes. Typically, treatment of SE requires emergency room intervention with either diazepam or lorazepam, immediately followed by phenytoin or phenobarbital. However, up to 15% of SE episodes can be refractory to these conventional therapies, thus identifying novel treatments that can be applied in the drug-refractory period, i.e. benzodiazepine-resistant SE, is of critical value to the clinical management of SE. The lithium-pilocarpine model is used to study the effects of a test compound on benzodiazepine-resistant SE. Sprague Dawley rats (n=8 per group; 100-150 g) are injected with lithium chloride (LiCl) solution (127 mg/kg). Animals are then used for the lithium pilocarpine-induced SE test 20-24 hours following LiCl injection. On the day of the test, animals are weighed and then injected with pilocarpine (50 mg/kg; i.p.) before being placed in an observation cage. In the initial convulsive-SE behavioral observation studies, adult rats receive a dose of the investigational compound, which was found in rat MES quantification to produce MMI. […] The ED50 and ED97 in this behavioral assay (30 minute time point) are determined for promising investigational compounds.

mechanical allodynia = assay: Spinal nerve injury (SNI) model, Von Frey test; assay type: in vivo, rat; conditions: 60 mg/kg i.p.
Text: The SNI model of neuropathic pain was developed in rats using the procedure described by Decostered and Woolf, Pain 2000, 87: 149-158. Under isoflurane anesthesia, the skin on the lateral surface of the thigh was incised and a section was made directly through the biceps femoris muscle exposing the sciatic nerve and its three terminal branches: the sural, common peroneal and tibial nerves. The common peroneal and the tibial nerves were tight-ligated with 6-0 suture and sectioned distal to the ligation, removing 2-4 mm of the distal nerve stump. Extreme care was taken to avoid any contact with or stretching of the intact sural nerve. Following surgery, hemostasis was confirmed and the muscles were sutured in layers using 4-0 suture and the skin was closed with 4-0 suture and metal clips. Male, Sprague-Dawley rats were used. Testing of compounds was done 21 days post-operatively. After initial basal readings were taken, the test compound or vehicle was administered. The readings were taken again 30, 60 and 180 min after the compound/vehicle administration. Both the control (uninjured) and the SNI paw were tested. The presence of mechanical allodynia was assessed using the Dynamic Plantar Aesthesiometer (Ugo Basile, Italy) which is a modified version of the Von Frey Hair test. […] A single reading was taken per time point. […]

Row | Compound | Duration (sec) ± SD (afterdischarge) ([1]; 10 mg/kg i.p.) | N/F, number of animals active over the number tested ([1]; 10 mg/kg i.p.) | Seizure Score ± SEM ([1]; 10 mg/kg i.p.) | Duration (sec) ± SD (afterdischarge) ([1]; 25 mg/kg i.p.) | N/F, number of animals active over the number tested ([1]; 25 mg/kg i.p.) | Seizure Score ± SEM ([1]; 25 mg/kg i.p.) | Duration (sec) ± SD (afterdischarge) ([1]; 37.5 mg/kg i.p.) | N/F, number of animals active over the number tested ([1]; 37.5 mg/kg i.p.) | Seizure Score ± SEM ([1]; 37.5 mg/kg i.p.) | Duration (sec) ± SD (afterdischarge) ([1]; 50 mg/kg i.p.) | N/F, number of animals active over the number tested ([1]; 50 mg/kg i.p.) | Seizure Score ± SEM ([1]; 50 mg/kg i.p.) | EC50, reduction of seizure score (seizure severity) ([1]; i.p., LTG-resistant kindled rats) | effect in chemically induced SE, administered 30 minutes after the appearance of seizures ([2]; 130 mg/kg) | effect in chemically induced SE, administered at the time of the chemical insult ([2]; time zero, 65 mg/kg) | mechanical allodynia in the denervated paw, Von Frey test (mechanical allodynia)
1 | C[C@@H](Oc1cc(Cl)cc(C(F)(F)F)c1)C(N)=O [I(D), (2R)-2-[3-chloro-5-(trifluoromethyl)-phenoxy]propanamide] | 158.5 ± 21.5 s | 0/2 | 5 ± 0.0 | 71.0 ± 13.61 s | 1/5 | 4.4 ± 0.6 | 54.2 ± 10.38 s | 3/5 | 3.2 ± 0.75 | 71.0 ± 13.61 s | 6/6 | 0.83 ± 0.17 | 32.55 ± 3.58 mg/kg | effective | effective | –
2 | NC(=O)COc1cc(C(F)(F)F)cc(C(F)(F)F)c1 [I(F), 2-[3,5 bis(trifluoromethyl)-phenoxy]acetamide;] | – | – | – | – | – | – | – | – | – | – | – | – | – | – | – | effective
